# Experimental data published in ChEMBL document CHEMBL5244239, “Penicillin binding protein 2a: An overview and a medicinal chemistry perspective” (Eur J Med Chem, 2020).
# pIC50, pKd: −log10 of the molar value.
# Key:
# [1] = biological target: T1, MecA (Staphylococcus aureus, UniProt Q7DHH4); experiment: Inhibition of Staphylococcus aureus PBP2a
# T1 sequence (Q7DHH4 whole entry): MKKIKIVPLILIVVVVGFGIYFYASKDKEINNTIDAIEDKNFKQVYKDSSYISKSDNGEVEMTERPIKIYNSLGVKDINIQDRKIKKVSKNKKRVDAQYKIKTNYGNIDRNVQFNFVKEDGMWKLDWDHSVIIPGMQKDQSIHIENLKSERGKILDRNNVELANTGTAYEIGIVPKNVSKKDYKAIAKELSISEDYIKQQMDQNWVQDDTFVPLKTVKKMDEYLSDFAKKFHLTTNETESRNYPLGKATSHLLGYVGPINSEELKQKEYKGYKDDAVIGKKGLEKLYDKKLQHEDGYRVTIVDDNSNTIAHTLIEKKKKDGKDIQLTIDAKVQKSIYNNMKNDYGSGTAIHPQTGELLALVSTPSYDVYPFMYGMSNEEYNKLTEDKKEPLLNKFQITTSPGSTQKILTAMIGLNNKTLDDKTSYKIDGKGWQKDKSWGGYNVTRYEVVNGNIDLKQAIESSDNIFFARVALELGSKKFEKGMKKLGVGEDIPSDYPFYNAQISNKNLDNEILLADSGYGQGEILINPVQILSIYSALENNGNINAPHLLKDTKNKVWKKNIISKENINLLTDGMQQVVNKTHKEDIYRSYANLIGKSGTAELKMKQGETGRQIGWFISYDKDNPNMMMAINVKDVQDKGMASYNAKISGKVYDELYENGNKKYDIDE
# [2] = test system: Staphylococcus aureus; experiment: Antibacterial activity against methicillin resistant Staphylococcus aureus PL 1; type: functional
# [3] = test system: Staphylococcus aureus; experiment: Antibacterial activity against methicillin resistant Staphylococcus aureus ATCC 43300; type: functional
# [4] = test system: Staphylococcus aureus; experiment: Potentiation of oxacillin against methicillin resistant Staphylococcus aureus assessed as fold increase in oxacillin activity; type: functional
# [5] = test system: Enterococcus faecium; experiment: Antibacterial activity against vancomycin-resistant Enterococcus faecium; type: functional
# [6] = test system: Staphylococcus aureus; experiment: Antibacterial activity against methicillin resistant Staphylococcus aureus; type: functional
# [7] = test system: Staphylococcus aureus; experiment: Antibacterial activity against methicillin sensitive Staphylococcus aureus NRS70; type: functional
# [8] = test system: Staphylococcus aureus; experiment: Antibacterial activity against methicillin sensitive Staphylococcus aureus NRS123; type: functional
# [9] = test system: Staphylococcus aureus; experiment: Antibacterial activity against methicillin sensitive Staphylococcus aureus NRS120; type: functional
# [10] = test system: Staphylococcus aureus; experiment: Antibacterial activity against Vancomycin-resistant Staphylococcus aureus 1; type: functional
# [11] = test system: Staphylococcus aureus; experiment: Antibacterial activity against Vancomycin-resistant Staphylococcus aureus 2; type: functional
# [12] = test system: Staphylococcus aureus; experiment: Antibacterial activity against methicillin sensitive Staphylococcus aureus ATCC 29213; type: functional
# [13] = test system: Staphylococcus aureus; experiment: Antibacterial activity against methicillin sensitive Staphylococcus aureus NRS100; type: functional
# [14] = test system: Staphylococcus aureus; experiment: Antibacterial activity against methicillin sensitive Staphylococcus aureus NRS119; type: functional
# [15] = test system: Staphylococcus aureus; experiment: Antibacterial activity against methicillin sensitive Staphylococcus aureus NRS128; type: functional
# [16] = biological target: T2, Penicillin-binding protein 1 (Staphylococcus aureus, UniProt Q53725); experiment: Inhibition of Staphylococcus aureus PBP1
# T2 sequence (Q53725 whole entry): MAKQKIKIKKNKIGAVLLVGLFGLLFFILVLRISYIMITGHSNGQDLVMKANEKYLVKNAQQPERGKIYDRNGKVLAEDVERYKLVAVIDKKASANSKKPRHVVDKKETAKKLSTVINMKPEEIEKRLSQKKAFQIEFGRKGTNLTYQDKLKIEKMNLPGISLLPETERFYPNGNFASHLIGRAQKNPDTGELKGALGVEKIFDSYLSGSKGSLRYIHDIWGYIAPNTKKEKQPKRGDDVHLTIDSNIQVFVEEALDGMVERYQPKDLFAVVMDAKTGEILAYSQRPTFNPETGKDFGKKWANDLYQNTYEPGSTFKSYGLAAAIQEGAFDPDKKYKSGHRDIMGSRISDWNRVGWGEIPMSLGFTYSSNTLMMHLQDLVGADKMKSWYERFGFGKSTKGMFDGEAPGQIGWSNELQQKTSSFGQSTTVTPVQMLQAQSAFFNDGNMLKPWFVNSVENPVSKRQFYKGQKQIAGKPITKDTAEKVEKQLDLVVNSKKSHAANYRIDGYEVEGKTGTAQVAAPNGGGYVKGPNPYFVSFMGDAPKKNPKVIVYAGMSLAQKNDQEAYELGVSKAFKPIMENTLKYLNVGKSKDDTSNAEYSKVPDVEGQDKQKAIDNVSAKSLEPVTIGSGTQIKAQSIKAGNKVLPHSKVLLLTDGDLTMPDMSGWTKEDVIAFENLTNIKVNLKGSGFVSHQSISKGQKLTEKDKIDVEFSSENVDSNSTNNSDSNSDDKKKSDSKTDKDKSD
# [17] = test system: Staphylococcus aureus; experiment: Potentiation of oxacillin against methicillin resistant Staphylococcus aureus OM584 assessed as fold increase in oxacillin activity; type: functional
# [18] = test system: Staphylococcus aureus; experiment: Potentiation of oxacillin against methicillin resistant Staphylococcus aureus OM623 assessed as fold increase in oxacillin activity; type: functional
# [19] = test system: Staphylococcus aureus; experiment: Potentiation of oxacillin against methicillin resistant Staphylococcus aureus OM505 assessed as fold increase in oxacillin activity; type: functional
# [20] = test system: Staphylococcus aureus; experiment: Potentiation of oxacillin against methicillin resistant Staphylococcus aureus OM481 assessed as fold increase in oxacillin activity; type: functional
# [21] = test system: Staphylococcus aureus; experiment: Antibacterial activity against methicillin resistant Staphylococcus aureus mp 1; type: functional
# [22] = biological target: T1, MecA; experiment: Binding affinity to Staphylococcus aureus ATCC 43300 PBP2a
# [23] = biological target: T1, MecA; experiment: Displacement of [3H]-penicillin from Staphylococcus aureus PBP2a
# [24] = biological target: T1, MecA; experiment: Binding affinity to methicillin resistant Staphylococcus aureus PBP2a by MST method
# [25] = biological target: T3, Penicillin-binding protein 2x (Streptococcus pneumoniae serotype 4 (strain ATCC BAA-334 / TIGR4), UniProt P14677); experiment: Binding affinity to Streptococcus pneumoniae PBP2x
# T3 sequence (P14677 whole entry): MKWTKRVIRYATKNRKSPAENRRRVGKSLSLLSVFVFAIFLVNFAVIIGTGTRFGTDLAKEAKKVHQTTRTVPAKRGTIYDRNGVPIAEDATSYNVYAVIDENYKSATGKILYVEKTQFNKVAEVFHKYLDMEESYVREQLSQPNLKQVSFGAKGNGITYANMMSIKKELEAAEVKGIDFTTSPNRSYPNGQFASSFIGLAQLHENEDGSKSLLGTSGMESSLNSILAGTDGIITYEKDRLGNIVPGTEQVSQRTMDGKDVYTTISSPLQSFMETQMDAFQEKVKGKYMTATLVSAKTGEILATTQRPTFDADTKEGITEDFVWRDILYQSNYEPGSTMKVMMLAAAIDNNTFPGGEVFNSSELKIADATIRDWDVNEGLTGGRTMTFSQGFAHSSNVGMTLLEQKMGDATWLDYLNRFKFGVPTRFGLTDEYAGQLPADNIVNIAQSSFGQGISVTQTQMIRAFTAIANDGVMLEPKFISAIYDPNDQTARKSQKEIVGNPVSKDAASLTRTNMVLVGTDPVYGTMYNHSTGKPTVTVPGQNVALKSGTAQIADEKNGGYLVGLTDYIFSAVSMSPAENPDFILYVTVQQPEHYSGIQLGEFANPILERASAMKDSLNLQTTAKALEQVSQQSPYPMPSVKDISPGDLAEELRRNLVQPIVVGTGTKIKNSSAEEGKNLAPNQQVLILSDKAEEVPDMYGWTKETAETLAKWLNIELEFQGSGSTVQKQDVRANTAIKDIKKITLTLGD
# [26] = Binding affinity to methicillin sensitive Staphylococcus aureus PBP2
# [27] = biological target: T1, MecA; experiment: Binding affinity to methicillin resistant Staphylococcus aureus PBP2a
# [28] = Binding affinity to methicillin sensitive Staphylococcus aureus PBP4
# [29] = test system: Staphylococcus aureus; experiment: Antibacterial activity against methicillin resistant Staphylococcus aureus TMHS-5007; type: functional
# [30] = Binding affinity to methicillin sensitive Staphylococcus aureus PBP3
# [31] = biological target: T2, Penicillin-binding protein 1; experiment: Binding affinity to methicillin sensitive Staphylococcus aureus PBP1
# [32] = test system: Staphylococcus aureus; experiment: Antibacterial activity against methicillin resistant Staphylococcus aureus TMHS-3125; type: functional
# [33] = test system: Staphylococcus aureus; experiment: Antibacterial activity against methicillin resistant Staphylococcus aureus 4977; type: functional
# [34] = test system: Staphylococcus aureus; experiment: Antibacterial activity against methicillin resistant Staphylococcus aureus TMHS-5006; type: functional
# [35] = test system: Staphylococcus aureus; experiment: Antibacterial activity against methicillin resistant Staphylococcus aureus 13101; type: functional
smiles,measurement,setting,value
CC1(C)S[C@@H]2[C@H](N)C(=O)N2[C@H]1C(=O)O,pIC50,[1],2.15
C[C@@H](NC(=O)c1c(F)cccc1-c1ccccc1)B(O)O,MIC,[2],32 µg/mL
same,MIC,[3],32 µg/mL
C=C1CCC[C@@H]2Nc3ccc(Br)cc3[C@]12CCNS(=O)(=O)c1ccc(Cl)cc1,fold change (FC),[4],128
Oc1ccc(-c2nc(-c3ccc(Oc4ccccc4)cc3)no2)cc1,MIC,[5],1 µg/mL
same,MIC,[6],1 µg/mL
Oc1ccc(-c2nc(-c3ccc(Oc4ccc(C(F)(F)F)cc4)cc3)no2)cc1,MIC,[5],1 µg/mL
same,MIC,[6],1 µg/mL
Nc1ccc(-c2nc(-c3ccc(Oc4ccc(C(F)(F)F)cc4)cc3)no2)cc1,MIC,[5],1 µg/mL
same,MIC,[6],1 µg/mL
N#Cc1ccc(/C=C/c2nc3ccccc3c(=O)n2-c2cccc(C(=O)O)c2)cc1,MIC,[7],2 µg/mL
same,MIC,[8],2 µg/mL
same,MIC,[9],2 µg/mL
same,MIC,[10],2 µg/mL
same,MIC,[11],2 µg/mL
same,MIC,[12],2 µg/mL
same,MIC,[13],2 µg/mL
same,MIC,[14],2 µg/mL
same,pIC50,[1],3.45
same,MIC,[15],2 µg/mL
same,IC50,[16],78 µg/mL
C#Cc1ccc(/C=C/c2nc3ccccc3c(=O)n2-c2cccc(C(=O)O)c2)cc1,MIC,[6],0.03 µg/mL
O=c1c2ccccc2nc(/C=C/c2ccc([N+](=O)[O-])cc2)n1-c1cccc(O)c1,MIC,[12],2 µg/mL
CC(=O)/C(=C/c1cn(CC(=O)N2CCCCC2)c2ccccc12)n1cc([N+](=O)[O-])nc1C,MIC,[6],1 µg/mL
O=C(O[C@H]1[C@@H]2OC(=O)c3cc(O)c(O)c(O)c3-c3c(cc(O)c(O)c3O)C(=O)OC[C@H]2OC(O)[C@@H]1OC(=O)c1cc(O)c(O)c(O)c1)c1cc(O)c(O)c(O)c1 (stereo partly drawn),fold change (FC),[17],100
same,fold change (FC),[18],100
same,fold change (FC),[19],100
same,fold change (FC),[20],100
CCCOc1cccc(C(=O)Nc2ccccc2C(=O)O)c1,MIC,[21],512 µg/mL
same,MIC,[3],512 µg/mL
same,pIC50,[22],3.04
C[C@@H](O)[C@H]1C(=O)N2C(C(=O)[O-])=C(c3ccc4c(c3)-c3ccc(C[n+]5ccn(C)c5)cc3C4=O)[C@H](C)[C@H]12,pIC50,[23],5.61
same,MIC,[6],16 µg/mL
CCCOc1ccc2cc(C(=O)Nc3ccc(Br)cc3C(=O)O)ccc2c1,MIC,[21],128 µg/mL
same,MIC,[3],128 µg/mL
same,pIC50,[22],3.68
COC(=O)C1=C[C@]2(C)C[C@@]34CC[C@@H]5[C@H](C=CC(=O)C5(C)C)[C@]35OC[C@]14[C@](C)(CC2=O)O5,pKd,[24],4.74
same,MIC,[6],32 µg/mL
CCCOc1cccc(C(=O)Nc2ccc(C)cc2C(=O)O)c1,MIC,[21],256 µg/mL
same,MIC,[3],256 µg/mL
same,pIC50,[22],3.17
CCCOc1cccc(C(=O)Nc2ccc(Br)cc2C(=O)O)c1,MIC,[21],32 µg/mL
same,MIC,[3],32 µg/mL
same,pIC50,[22],3.64
CCCCOc1ccc2cc(S(=O)(=O)Nc3ccccc3C(=O)O)ccc2c1,MIC,[21],32 µg/mL
same,MIC,[3],32 µg/mL
same,pIC50,[22],4.01
same,pIC50,[25],3.41
CCO/N=C(\C(=O)N[C@@H]1C(=O)N2C(C(=O)[O-])=C(Sc3nc(-c4cc[n+](C)cc4)cs3)CS[C@H]12)c1nsc(N)n1 [CEFTAROLINE],IC50,[26],0.1 µg/mL
same,pIC50,[27],6.58
same,IC50,[28],> 1 µg/mL
same,MIC,[29],> 32 µg/mL
same,IC50,[30],0.1 µg/mL
same,pIC50,[31],6.78
same,MIC,[32],> 32 µg/mL
same,MIC,[33],2 µg/mL
same,MIC,[34],> 32 µg/mL
same,MIC,[35],2 µg/mL
Nc1nc(/C(=N/O)C(=O)N[C@@H]2C(=O)N3C(C(=O)O)=C(/C=C4\CCN([C@@H]5CCNC5)C4=O)CS[C@H]23)ns1 [CEFTOBIPROLE],MIC,[6],0.5 µg/mL
O=C(O[C@@H]1O[C@@H]2COC(=O)c3cc(O)c(O)c(O)c3-c3c(cc(O)c(O)c3O)C(=O)O[C@H]([C@H]1O)[C@@H]2O)c1cc(O)c(O)c(O)c1 [CORILAGIN],fold change (FC),[17],100
same,fold change (FC),[18],100
same,fold change (FC),[19],100
same,fold change (FC),[20],100
